This is an account of results in US20240217951A1, “PCSK9 INHIBITORS AND METHODS OF USE THEREOF” (AstraZeneca AB, priority 2022, published 2024).

Some results are limits rather than exact numbers.

A word on the Kd: it is the equilibrium constant for the complex coming apart. A word on the IC50: it is the midpoint of a concentration-inhibition curve.

Series [1] addresses T1, human PCSK9 (Homo sapiens, UniProt Q8NBP7).
T1 construct: biotinylated human PCSK9 (31-692)-Avi-His6; His6 (C)
As to the kind of experiment: Assay 2 - Biophysical human PCSK9 assay (SPR, Biacore). Conditions: geometric mean; SPR at 30° C; read-out: Assay 2 (PCSK9 BIAcore DBA CR) GMean Kd. It counts as binding. The protocol: Assay 2—Biophysical Human PCSK9 Assay
The SPR binding experiments were performed on a Biacore S200 optical biosensor unit at 30° C. A Series S Sensor Chip SA that is designed to bind biotinylated molecules for interaction analysis in Biacore systems was equilibrated at room temperature prior to use. The running buffer for protein tethering and subsequent ligand binding experiments was 10 mM HEPES pH 7.4, 150 mM NaCl, 0.05% (v/v) Tween 20 pH 7.4.
For the surface tethering of PCSK9, biotinylated human PCSK9 (31-692)-Avi-His6 at a concentration of 0.5 mg/mL was used. Prior to the surface tethering, the surface was exposed to a solution of 50 mM NaOH, 500 mM NaCl via 3 consecutive injections of this solution with a contact time of 60 s and a flowrate of 10 μL min^−1 to remove non-conjugated streptavidin. The PCSK9 protein was diluted to a concentration of 20 μg/mL using running buffer and injected with a contact time of 180-300 s and a flowrate of 10 μL min^−1 over a single flow channel (typically flow channel 2 or flow channel 4) with the aim to achieve protein capture levels of >5000 response units (RU). Remaining biotin binding sites were blocked via 2 consecutive injections of a 10 μM D-biotin solution in running buffer with a contact time of 60 s and a flowrate of 10 μL min^−1 over all flow-channels. Flow-channels 1 and 3 typically served as a reference surface throughout the subsequent binding experiments.
The binding experiments were all performed at a flow rate of 30 PL min^−1 and by employing the method of single-cycle kinetics. This approach involves the sequential injection of a compound concentration series without regeneration steps. A contact time between 90-150 s was selected, which was followed by a 40 min dissociation phase to allow for a proper estimation of the dissociation rate constant. Test compounds were delivered in DMSO at a concentration of 10 mM and a digital dispenser HP D300 was used to set up the compound concentration series using 6 concentrations. The tested concentrations have been 30, 100, 300, 1000, 3000 and 10000 nM. Prior to injecting any compound, the surfaces were equilibrated by injecting running buffer over them in three separate pulses. The data collection rate was set to 10 Hz.
The raw sensorgrams of the compound injections were first subjected to reference subtraction (subtracting the signal from flow channel 1 and/or 3 from the signal from channels 2 and/or 4 respectively) and then blank subtraction (subtracting the signal from injecting DMSO controls from the reference subtracted data). The resulting double-referenced sensorgrams were then fitted using a 1:1 binding interaction model using the manufactures software package to extract kinetic- and affinity data. Active compounds have been defined by creating a detectable binding signal at the highest compound concentration ([…]) of 3 RUs. Kinetic- and affinity data on active compounds are only provided for those compounds where the binding signal at the highest compound concentration ([…]) is 50% of the theoretical maximum binding signal for a 1:1 binding interaction (Rmax, typically between 15-20 RUs) in order to enable a proper fitting of the data.
(SPR reads the build-up and loss of mass on a sensor chip optically.)

Series [2] addresses GSK3β (Glycogen synthase kinase-3 beta) (Homo sapiens, UniProt P49841). As to the kind of experiment: Assay 6 - GSK3β assay (ThermoFisher Z-Lyte). It counts as biochemical. Conditions: geometric mean; ATP Conc: 10 μM; read-out: Assay 6 (GSK3β FRET-Z-Lyte CR) GMean IC50 (μM) ATP Conc: 10. An outline of the steps:
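Z-Lyte fluorescence kinase assay with 0.22-0.92 ng GSK3β and 2 μM Ser/Thr 09 peptide in 50 mM HEPES pH 7.5, 10 mM MgCl2, 1 mM EGTA, 0.01% BRIJ-35. Kinase reaction 60 min at room temperature, then 60 min development. 10-point 3-fold titration from 10 μM in 1% DMSO, fitted to a sigmoidal dose-response curve.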

For series [3], the target named is PCSK9 (Homo sapiens, UniProt Q8NBP7, G670E/V474I). Briefly: biochemical.
Series [4] concerns the target T2, hERG potassium ion channel (Homo sapiens, UniProt Q12809).
T2 construct: expressed in transfected cells; host or cells: Chinese hamster ovary K1 (CHO)
As to the kind of experiment: Assay 5 - hERG assay (SyncroPatch 384PE patch clamp, CHO cells). It is filed as cell-based. Conditions: human, CHO-K1 cells over-expressing hERG, pH 7.4, geometric mean, read-out: Assay 5 (hERG Hu CHO IF EPh CR-Syncro) GMean IC50. An outline of the steps:
(§1)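 Automated high-throughput patch clamp on CHO-K1 cells overexpressing hERG at room temperature, KF/KCl internal with escin, NMDG-containing external at pH 7.4. Six-point cumulative compound addition, 0.33% DMSO final; wells kept only with seal >30 MΩ, Z′ >0.4 and current >0.2 nA.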
In general terms: Block of hERG is tested as a sign of cardiac risk.

Series [5] deals with T3, potassium ion channel hERG (human Ether-á-go-go-Related Gene) (Homo sapiens, UniProt Q12809).
T3 construct: expressed in transfected cells; host or cells: Chinese hamster ovary K1 (CHO)
The series is described as above. It is filed as cell-based. Conditions: geometric mean; CHO cells over-expressing hERG; read-out: Assay 5 (hERG Hu CHO IF EPh CR-Syncro) GMean IC50. An outline of the steps:
as §1

For series [6] the following is noted: clinical trials, patients; alirocumab compared to placebo; cited from earlier work.

Sequence of PCSK9 (Q8NBP7 with tags, fused parts or gaps V474I/G670E): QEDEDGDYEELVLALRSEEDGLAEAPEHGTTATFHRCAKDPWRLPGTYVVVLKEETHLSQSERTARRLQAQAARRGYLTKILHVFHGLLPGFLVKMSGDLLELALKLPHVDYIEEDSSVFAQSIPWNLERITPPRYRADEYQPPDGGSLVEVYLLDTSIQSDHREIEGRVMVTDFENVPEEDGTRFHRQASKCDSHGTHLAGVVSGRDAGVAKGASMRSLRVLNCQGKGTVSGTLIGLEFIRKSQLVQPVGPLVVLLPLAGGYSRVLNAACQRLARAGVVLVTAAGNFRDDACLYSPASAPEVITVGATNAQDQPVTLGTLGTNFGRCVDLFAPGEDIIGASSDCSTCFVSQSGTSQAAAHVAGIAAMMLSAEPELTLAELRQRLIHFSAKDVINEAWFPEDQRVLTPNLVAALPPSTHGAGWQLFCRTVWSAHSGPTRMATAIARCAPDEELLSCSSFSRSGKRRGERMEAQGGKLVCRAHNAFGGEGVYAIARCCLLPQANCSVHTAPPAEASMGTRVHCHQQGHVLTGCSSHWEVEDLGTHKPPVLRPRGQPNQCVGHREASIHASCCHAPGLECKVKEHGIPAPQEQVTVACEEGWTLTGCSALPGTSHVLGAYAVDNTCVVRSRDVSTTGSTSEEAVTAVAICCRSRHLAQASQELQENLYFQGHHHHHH
Sequence of GSK3β (Glycogen synthase kinase-3 beta) (P49841 whole entry): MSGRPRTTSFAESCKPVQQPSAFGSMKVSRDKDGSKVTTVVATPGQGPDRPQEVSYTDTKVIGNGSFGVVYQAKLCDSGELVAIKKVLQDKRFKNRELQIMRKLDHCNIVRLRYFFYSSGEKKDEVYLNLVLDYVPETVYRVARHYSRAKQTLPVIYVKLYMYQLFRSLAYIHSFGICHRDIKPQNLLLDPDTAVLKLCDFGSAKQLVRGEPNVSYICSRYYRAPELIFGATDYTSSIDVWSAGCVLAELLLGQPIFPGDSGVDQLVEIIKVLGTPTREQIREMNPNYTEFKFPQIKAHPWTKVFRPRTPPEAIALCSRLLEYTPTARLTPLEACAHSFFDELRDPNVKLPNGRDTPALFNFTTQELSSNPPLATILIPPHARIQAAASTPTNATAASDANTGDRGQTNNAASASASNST
T1 sequence (Q8NBP7 31-692): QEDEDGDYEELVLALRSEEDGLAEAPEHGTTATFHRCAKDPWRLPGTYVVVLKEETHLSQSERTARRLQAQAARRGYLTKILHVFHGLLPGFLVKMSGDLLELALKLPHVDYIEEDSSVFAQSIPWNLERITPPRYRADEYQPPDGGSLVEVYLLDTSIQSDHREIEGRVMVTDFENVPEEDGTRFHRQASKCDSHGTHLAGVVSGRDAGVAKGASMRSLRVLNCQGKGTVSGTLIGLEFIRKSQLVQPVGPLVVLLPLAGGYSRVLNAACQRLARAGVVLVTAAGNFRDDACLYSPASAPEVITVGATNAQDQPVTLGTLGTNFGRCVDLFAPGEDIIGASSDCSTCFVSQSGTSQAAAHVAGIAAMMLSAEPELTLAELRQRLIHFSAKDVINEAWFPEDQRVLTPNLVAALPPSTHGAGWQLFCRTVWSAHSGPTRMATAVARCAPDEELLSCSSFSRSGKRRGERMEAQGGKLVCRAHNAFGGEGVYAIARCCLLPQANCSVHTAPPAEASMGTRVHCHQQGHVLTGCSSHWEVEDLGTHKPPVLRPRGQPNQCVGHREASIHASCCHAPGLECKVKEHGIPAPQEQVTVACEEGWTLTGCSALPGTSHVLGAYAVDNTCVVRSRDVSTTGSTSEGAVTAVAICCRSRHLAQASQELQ
T2 sequence (Q12809 whole entry): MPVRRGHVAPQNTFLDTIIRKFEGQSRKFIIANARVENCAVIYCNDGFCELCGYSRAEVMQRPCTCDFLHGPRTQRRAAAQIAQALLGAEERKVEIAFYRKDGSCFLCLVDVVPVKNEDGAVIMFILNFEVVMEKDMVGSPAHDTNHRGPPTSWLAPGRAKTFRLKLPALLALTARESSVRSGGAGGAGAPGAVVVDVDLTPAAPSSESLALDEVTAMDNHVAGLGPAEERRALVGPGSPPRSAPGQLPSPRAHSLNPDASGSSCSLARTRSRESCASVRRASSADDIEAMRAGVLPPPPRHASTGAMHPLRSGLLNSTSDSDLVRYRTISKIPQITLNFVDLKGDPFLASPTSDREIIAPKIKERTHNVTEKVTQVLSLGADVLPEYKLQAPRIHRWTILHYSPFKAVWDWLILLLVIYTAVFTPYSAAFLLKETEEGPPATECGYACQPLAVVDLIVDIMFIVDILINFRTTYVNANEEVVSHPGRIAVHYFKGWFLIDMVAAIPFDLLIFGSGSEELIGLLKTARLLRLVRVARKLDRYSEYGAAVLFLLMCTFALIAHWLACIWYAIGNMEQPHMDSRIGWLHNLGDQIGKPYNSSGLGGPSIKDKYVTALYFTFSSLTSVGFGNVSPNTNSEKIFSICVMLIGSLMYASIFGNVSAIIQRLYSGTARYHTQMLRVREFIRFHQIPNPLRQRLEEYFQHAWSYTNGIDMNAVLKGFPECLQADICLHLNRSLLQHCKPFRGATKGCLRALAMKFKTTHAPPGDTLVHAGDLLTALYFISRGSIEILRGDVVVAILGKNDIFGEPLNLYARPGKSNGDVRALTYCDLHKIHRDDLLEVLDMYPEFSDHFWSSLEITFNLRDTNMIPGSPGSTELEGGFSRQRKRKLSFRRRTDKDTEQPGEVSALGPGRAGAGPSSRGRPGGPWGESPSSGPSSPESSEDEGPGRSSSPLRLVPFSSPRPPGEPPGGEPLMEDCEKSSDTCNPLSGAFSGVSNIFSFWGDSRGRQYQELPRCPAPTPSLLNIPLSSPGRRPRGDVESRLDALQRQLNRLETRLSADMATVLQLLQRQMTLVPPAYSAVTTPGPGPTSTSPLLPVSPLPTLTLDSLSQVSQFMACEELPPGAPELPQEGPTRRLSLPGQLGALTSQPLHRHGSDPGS
T3 sequence (Q12809 whole entry): as above

`Cc1nc(N[C@H]2CC[C@H](Nc3cnc(OC(F)F)cn3)C2)ccc1-n1ccccc1=O` [Example 97, 6′-(((1S,3S)-3-((5-(Difluoromethoxy)pyrazin-2-yl)amino)cyclopentyl)amino)-2′-methyl-2H-[1,3′-bipyridin]-2-one]: the equilibrium dissociation constant (Kd) in series [1] is 26 nM. The values for the half-inhibitory concentration (IC50) in series [2], in series [3] and in series [4] were greater than 10 µM, 63 nM and 35400 nM, respectively.
With `CN1CCN(c2ccc(=O)n(-c3ccc(N[C@H]4CC[C@H](Nc5cnc(OC(F)F)cn5)C4)nc3)c2)CC1` [Example 81, 6′-(((1S,3S)-3-((5-(Difluoromethoxy)pyrazin-2-yl)amino)cyclopentyl)amino)-5-(4-methylpiperazin-1-yl)-2H-[1,3′-bipyridin]-2-one], the Kd in series [1] worked out at 66 nM. Further, the IC50 in series [2] is 0.498 µM; in series [3], 202 nM; in series [5], greater than 40000 nM.
On to alirocumab, for which the “decrease in LDL levels” value in series [6] is given as “about 50%”.
